Experimental findings from US10280156B2, “Heteroaromatic chalcone derivatives and their medical use” (Medizinische Universität Wien, priority 2014, dated 2019) are described below.

The structures appear in SMILES notation.

The test system of series [1] is OCI-Ly7. In words: Viability test on OCI-Ly7 cells, 48 h. The format is cell-based, human. The settings on record: 48 h incubation; nd = no significant cytotoxic activity up to 100 μM. On the procedure:
JURKAT and CCRF-CEM (T-cell acute lymphoblastic leukemia), HL60 and K562 representing acute and chronic myeloid leukemia, respectively, the chronic lymphocytic leukemia cell line MEC-1, and the diffuse large B-cell lymphoma cell line U-2940 were cultured in Gibco RPMI 1640+GlutaMAX (Life Technologies, Carlsbad, Calif., USA) supplemented with 10% fetal bovine serum gold (FBS gold; PAA Laboratories, Pasching, Austria) and 1% PenStrep (100 U/ml penicillin and 100 μg/ml streptomycin; PAA Laboratories), and maintained at 37° C. in humidified atmosphere with 5% CO2. The diffuse large B-cell lymphoma cell line OCI-LY7 was cultured in Gibco IMDM+GlutaMAX and 25 mM HEPES (Life Technologies) containing 20% FBS gold and 1% PenStrep.
(§1) All experiments with hematological cell lines were done using phenol red-free RPMI 1640+L-glutamine (PAA Laboratories) supplemented with 1% PenStrep and 10% FBS gold, except experiments with OCI-Ly7 which were carried out in Gibco IMEM+GlutaMAX and 25 mM HEPES containing 20% FBS gold and 1% PenStrep. Cells were incubated in triplicates with increasing concentrations of the compounds for 48 h, changes in viability were determined using the cell proliferation and cytotoxicity assays EZ4U (Biomedica Group, Austria) and CellTiter-Blue Cell Viability Assay (Promega, Madison, Wis., USA) following instructions of the manufacturers. IC50 values were calculated from two independent experiments using GraphPad Prism 5 software.
(§2) Initially, compounds were biologically tested in six concentration steps (0.1 μM; 1 μM; 5 μM; 10 μM; 50 μM; and 100 μM) using the CellTiter-Blue Cell Viability Assay (Promega, Madison, Wis., USA) and an incubation time of 48 hours. […] IC50 values were calculated from at least two independent experiments with 3 replicates each. In order to evaluate the biologic activity of the new compounds, cytotoxicity was compared to that of fludarabine, an already approved drug for the treatment of various B-cell malignancies. […] Differences in IC50 values for the different cell types can be explained by the biological and genetic particularities of each subtype of B-cell Non-Hodgkin lymphoma (Stacchini A et al. Leukemia Res 1999, 23, 127-136; Sambade C et al. Int J Cancer 2006, 118, 555-563; Chang H et al. Leukemia lymphoma 1995, 19, 165-171; Tweeddale M E et al. Blood 1987, 69, 1307-1314; Tweeddale M et al. Blood 1989, 74, 572-578).

Series [2] has as its system SU-DHL6. Nature of the series: Viability test on SU-DHL6 cells. The format is cell-based, human. As to the method: as §1
Hematologic malignancies are highly heterogeneous in their biology and behavior. This and the fact that some patient groups are resistant to therapy underlines the urgent need for new therapeutic drugs. Compound 15 has therefore been tested on other cell lines representing a variety of hematologic neoplasms: two T-cell acute leukemia cell lines (CCRF, Jurkat), two myeloid leukemia cell lines (HL60, K562), and two additional B-cell lines (SU-DHL6, SU-DHL9). Viability was assessed as described in the methods section above. […] An exception was the chronic myeloid leukemia line K562. […]

For series [3], the system named is M2-10B4. Nature of the series: Viability test on mouse fibroblast cell line M2-10B4, 48 h. It is filed as cell-based. Particulars: Mus musculus, M210B4, 48 h, 48 h incubation; mouse fibroblast cell line. As to the method:
as §1
Structurally seen, the small molecule compound 1 represents a typical chalcone scaffold. It is characterized by an ortho-ethoxy-substituted phenyl part as ring A and a 2-naphthyl moiety symbolizing ring B. The focus of the present study was to guide the systematic identification of a growth inhibitor with specificity to neoplastic cells, as cytotoxicity towards healthy cells is mostly associated with adverse effects, which can be related to morbidity and mortality of the patient (Milligan D W et al. Brit J Haematol 2006, 135, 450-474). To discriminate in vitro between structural elements necessary for potent cytotoxicity towards tumor cells which, at the same time, clearly show less activity on normal cells, the compounds were additionally tested on the murine bone marrow fibroblast cell line M2-10B4. This cell line is regularly used as feeder layer when cultured with patient cells providing additional support and survival signals in particular in drug screens (Kurtova A V et al. Blood 2009, 114, 4441-4450).
as §2

In general, IC50 refers to the point on the concentration scale where inhibition reaches its midpoint.

`CCOc1ccccc1C(=O)/C=C/c1cc2ccccc2[nH]1` [Compound 15, 1-(2-Ethoxyphenyl)-3-(1H-indole-2-yl)-2-propen-1-one]: the IC50 in series [1] came out at 2900 nM; in series [2] (Homo sapiens, SU-DHL-6, B-cell lymphoma, nd = no significant cytotoxic activity up to 100 μM) it was 60 nM; in series [3], 19200 nM. Besides, in series [2] (SU-DHL6, at concentrations <1 μM), the “viability, % of control” value is “less than 30 % of control”.
